According to article PMC11645267, “Novel pharmacologic inhibition of lysine-specific demethylase 1 as a potential therapeutic for glioblastoma” (Cancer Gene Therapy, 2024):

Experiments:
[1] = tested on: GSC1228 intracranial xenograft; test: Intracranial xenograft mouse model inoculated with GSC1228 cells; assay type: in vivo, NOD/SCID mice
Procedure: All experiments were performed under protocols approved by the Institutional Animal Care and Use Committee of Nagoya University of Graduate School of Medicine. Cells (1 × 10^5 cells per mouse) were injected intracranially into 6-week-old female NOD/SCID mice (n = 20, SLC, Shizuoka, Japan). Four weeks after the injection, S2172 or DMSO were intravenously injected five days a week for 3 weeks (10 mg/kg per day, 15 injections in total). We used established guidelines to determine the sample size for the mouse experiments. The mice were assigned randomly to experimental and control groups. There was no blinding applied in the experiment.
We utilized intracranial xenograft mouse models inoculated with GSC1228 cells. After 30 days of inoculation, we administered S2172 intravenously at 10 mg/kg five times a week for three weeks. […] Following treatment with S2172 for one week, mice were sacrificed, and the xenograft glioma tissues were examined. The H3K4me2 level was increased in the tumor regions treated with S2172 (P < 0.01, Fig. 4B). Consistent with the in vitro analysis, the protein levels of Nestin and SOX2 were decreased in tumor tissues (Fig. 4C).
Fig. 4 S2172 eradicates tumor cells in GSC brain tumor mouse model. A Tumor volume was assessed by MRI after treatment with either DMSO or S2172 for 15 times. Error bars represent the SD. *P < 0.05. n = 7. B H3K4me2 level in the tumor tissue from the mouse brain (left panel). Quantification of western blot band signal intensity (right panel). The y-axis in the panel indicates the relative signal intensity of each protein normalized to histone H3. […] Quantification of western blot band signal intensity (right panel). […]
The density of bands was quantified using ImageJ software (https://imagej.nih.gov/ij/). […]
When mice were scanned with MRI, mice were anesthetized with isoflurane (3% in air) and placed in MRS 3017 Benchtop MRI Systems (MR Solutions, Guildford, UK). Using MRI images, tumor volumes were obtained by compiling tumor areas from all slices that contained tumors and calculated by ImageJ software (https://imagej.nih.gov/ij/) {Towner, […]

[2] = tested on: GSC1228 cells; test: ChIP-seq analysis of histone modifications; assay type: cell-based, human; conditions: GSC1228, 5 μM, versus DMSO
Procedure: Cells (1 × 10^6) were treated with 1% formaldehyde for 8 min to crosslink histones to DNA. After washing with cold PBS, cell pellets were lysed with lysis buffer (10 mM Tris-HCl, 0.25% Triton X-100, 10 mM EDTA, and 0.1 M NaCl). Cell nuclei were collected after centrifugation and re-suspended in SDS lysis buffer (1% SDS, 150 mM NaCl, 50 mM HEPES-KOH, 2 mM EDTA, 1% Triton X-100, and 0.1% sodium deoxycholate). Chromatin was sonicated using Covaris S220 (Covaris, Moburn, MA, USA). Lysates were incubated overnight with 50 μL of Dynabeads Protein G (Thermo Fisher Scientific) which were pre-coated with 4 μL of anti-H3K4me1 antibody (ab8895, Abcam, Cambridge, UK), 3 μL of anti-H3K4me2 antibody (#39141, Active Motif), 2.5 μL of anti-H3K4me3 antibody (#39159, Active Motif), 4 μL of anti-H3K9me2 antibody (ab1220, Abcam). The beads were washed and protein-DNA complexes were eluted with elution buffer (1% SDS, 10 mM EDTA, and 50 mM Tris-HCl) and then treated with RNase for 2 h at 37°C followed by proteinase K treatment overnight. DNA was extracted by the phenol/chloroform method, ethanol-precipitated and re-suspended in 0.1 × TE buffer. 10% of the lysate was treated with RNase and proteinase K and de-crosslinked as input samples.
ChIP DNA (n = 2 for each antibody in each condition) was used to make sequence libraries using NEBNext Ultra II DNA library Prep kit for the Illumina (New England Biolabs, Ipswich, MA, USA). Library quality was checked using the Agilent Bioanalyzer 2100 (Agilent Technologies, Santa Clara, CA, USA) and then libraries were run on an Illumina Hiseq XTen (Illumina, San Diego, CA, USA).
ChIP-seq clean reads were obtained from raw reads by the removal of adaptors and low-quality reads. The clean reads were aligned to the human genome (hg38) using Bowtie2 (version 2.4.2). The levels of histone modification at gene promoters were estimated by counting the numbers of reads mapped within a 2-kb region around the transcriptional start site using MACS2 [30] and HOMER [31]. Differential analysis of peaks and generation of heatmap were performed using BEDtools v2.30.0 [32]. HOMER was used to annotate ChIP-seq peaks for genomic location and link these peaks to nearby genes. TF binding motif analysis was performed using HOMER. BEDtools was used to obtain overlap peaks with super-enhancers and H3K4me2 peaks. Furthermore, we used our deposited GSC316 H3K27ac ChIP-seq data (GSE178471) and identified super-enhancers by the Rank Ordering of Super Enhancer (ROSE) algorithm. From this analysis, we identified 672 super-enhancers.
To precisely evaluate the effects of S2172 on histone modifications at a genome-wide scale, we performed ChIP-seq analysis in GSC1228 cells treated with either DMSO or S2172. […]

## NC1CCC(NC2CC2c2cc(F)cc(F)c2OCc2ccccc2)CC1 (stereo not shown) [S2172]
[1]; 10 mg/kg intravenously five times a week for three weeks, P < 0.05 MRI, P < 0.01 HE
  tumor area (MRI; HE-stained tissue images): significantly smaller
[1]; after one week of treatment
  protein levels of Nestin and SOX2 in tumor tissues: decreased
[1]; after one week of treatment, P < 0.01
  H3K4me2 level in tumor regions: increased
[2]
  de novo H3K4me3 regions after treatment: 2582 regions
  new H3K4me2 regions (de novo regions) after treatment: 20,085 regions
  regions already modified by H3K4me2 with increased H3K4me2 after treatment: 25,326 regions
  regions from which H3K4me2 was lost after treatment: 5788 regions
